Source: ChEMBL document CHEMBL1926526, “Mefloquine-oxazolidine derivatives, derived from mefloquine and arenecarbaldehydes: In vitro activity including against the multidrug-resistant tuberculosis strain T113” (Bioorg Med Chem, 2012)

Legend:
[1] = test system: Mycobacterium tuberculosis; assay: Ratio of mefloquine MIC to compound MIC for Mycobacterium tuberculosis H37Rv ATCC 27294 by alamar blue assay; assay type: functional
[2] = test system: Mycobacterium tuberculosis; assay: Antimycobacterial activity against Mycobacterium tuberculosis H37Rv ATCC 27294 by alamar blue assay; assay type: functional
[3] = Cytotoxicity against mouse macrophages assessed as cell viability at 10 uM after 18 hrs by MTT assay; assay type: cell-based, Macrophage; conditions: read-out: Activity
[4] = Cytotoxicity against mouse macrophages assessed as cell viability at 1 uM after 18 hrs by MTT assay; assay type: cell-based, Macrophage; conditions: read-out: Activity
[5] = Cytotoxicity against mouse macrophages assessed as cell viability at 100 uM after 18 hrs by MTT assay; assay type: cell-based, Macrophage; conditions: read-out: Activity

Row | SMILES | Ratio [1] | MIC [2] [µM] | viability at 18 h, 10 µM [3] [%] | viability at 18 h, 1 µM [4] [%] | viability at 18 h, 100 µM [5] [%]
1 | O=[N+]([O-])c1ccc(C2O[C@@H](c3cc(C(F)(F)F)nc4c(C(F)(F)F)cccc34)[C@H]3CCCCN23)s1 (mixture of isomers) | 2.7 | 12.1 | 100 | 100 | 100
2 | FC(F)(F)c1cc([C@@H]2OC(c3cccc(Cl)c3Cl)N3CCCC[C@H]23)c2cccc(C(F)(F)F)c2n1 (mixture of isomers) | – | > 250 | 100 | 100 | 100
3 | FC(F)(F)c1cc([C@@H]2OC(c3ccc(Cl)c(Cl)c3)N3CCCC[C@H]23)c2cccc(C(F)(F)F)c2n1 (mixture of isomers) | – | > 250 | 100 | 100 | 100
4 | FC(F)(F)c1cc([C@@H]2OC(c3ccc(Cl)cc3Cl)N3CCCC[C@H]23)c2cccc(C(F)(F)F)c2n1 (mixture of isomers) | – | > 250 | 100 | 100 | 98
5 | FC(F)(F)c1cc([C@@H]2OC(c3c(Cl)cccc3Cl)N3CCCC[C@H]23)c2cccc(C(F)(F)F)c2n1 (mixture of isomers) | – | > 250 | 92 | 93 | 59
6 | COc1cccc(C2O[C@@H](c3cc(C(F)(F)F)nc4c(C(F)(F)F)cccc34)[C@H]3CCCCN23)c1OC (mixture of isomers) | 2.8 | 11.9 | 100 | 100 | 100
7 | CCOc1cccc(C2O[C@@H](c3cc(C(F)(F)F)nc4c(C(F)(F)F)cccc34)[C@H]3CCCCN23)c1 (mixture of isomers) | – | 24.5 | 100 | 100 | 95
8 | COc1cc(C2O[C@@H](c3cc(C(F)(F)F)nc4c(C(F)(F)F)cccc34)[C@H]3CCCCN23)cc(OC)c1OC (mixture of isomers) | – | 22.5 | 100 | 100 | 97
9 | O=[N+]([O-])c1ccc(C2O[C@@H](c3cc(C(F)(F)F)nc4c(C(F)(F)F)cccc34)[C@H]3CCCCN23)o1 (mixture of isomers) | – | 99.8 | 100 | 100 | 100
10 | FC(F)(F)c1cc([C@@H]2OC(c3ncc[nH]3)N3CCCC[C@H]23)c2cccc(C(F)(F)F)c2n1 (mixture of isomers) | – | 27.4 | 100 | 100 | 100
11 | OC(c1cc(C(F)(F)F)nc2c(C(F)(F)F)cccc12)C1CCCCN1 (stereo not given) [MEFLOQUINE] | – | – | 81 | 95 | 70
